Experimental data: patent US8058228B2, “Leptin peptide antagonists” (Boston Biomedical Research Institute, priority 2004, dated 2011)

Molecular target: T1, OB-R (Homo sapiens, UniProt P48357)
T1 construct: After confirming via Western that the primary EEC and ESC and endometrial cell lines utilized herein had OB-R; endogenous in cells; host or cells: primary human EEC and ESC; Ishikawa (ECACC 9832301) and HES cell lines
T1 sequence (P48357 22-1165): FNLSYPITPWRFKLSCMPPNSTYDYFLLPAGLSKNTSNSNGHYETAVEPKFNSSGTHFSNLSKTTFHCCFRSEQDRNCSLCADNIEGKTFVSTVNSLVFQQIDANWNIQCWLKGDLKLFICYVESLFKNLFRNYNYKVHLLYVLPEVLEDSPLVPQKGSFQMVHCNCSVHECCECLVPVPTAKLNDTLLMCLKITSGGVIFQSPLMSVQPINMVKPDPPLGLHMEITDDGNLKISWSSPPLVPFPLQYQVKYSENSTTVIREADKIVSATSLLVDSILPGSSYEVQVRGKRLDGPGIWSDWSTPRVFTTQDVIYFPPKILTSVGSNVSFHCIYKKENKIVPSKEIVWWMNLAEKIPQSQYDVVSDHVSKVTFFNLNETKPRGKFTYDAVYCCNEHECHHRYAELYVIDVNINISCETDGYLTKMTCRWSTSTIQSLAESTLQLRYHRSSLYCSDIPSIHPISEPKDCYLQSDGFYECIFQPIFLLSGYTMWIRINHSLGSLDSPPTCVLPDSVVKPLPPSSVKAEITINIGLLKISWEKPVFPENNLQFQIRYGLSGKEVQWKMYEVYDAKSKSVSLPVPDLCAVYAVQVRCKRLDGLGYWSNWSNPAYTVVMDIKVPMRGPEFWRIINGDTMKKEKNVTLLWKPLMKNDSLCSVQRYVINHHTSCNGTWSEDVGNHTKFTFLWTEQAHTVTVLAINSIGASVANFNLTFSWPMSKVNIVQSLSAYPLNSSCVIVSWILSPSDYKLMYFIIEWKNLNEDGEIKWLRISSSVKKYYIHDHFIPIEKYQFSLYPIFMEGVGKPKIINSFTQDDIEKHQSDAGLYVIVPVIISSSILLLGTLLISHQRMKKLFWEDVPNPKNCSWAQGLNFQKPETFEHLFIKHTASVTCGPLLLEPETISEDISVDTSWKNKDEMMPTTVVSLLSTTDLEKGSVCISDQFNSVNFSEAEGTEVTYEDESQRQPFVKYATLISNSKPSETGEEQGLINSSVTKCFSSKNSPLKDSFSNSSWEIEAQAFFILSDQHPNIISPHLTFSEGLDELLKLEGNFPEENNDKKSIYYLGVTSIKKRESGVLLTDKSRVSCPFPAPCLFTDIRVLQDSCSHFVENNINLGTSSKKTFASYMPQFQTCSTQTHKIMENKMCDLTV
Assay: IL-1R tl levels in human endometrial epithelial cells (Western blot)
Type: cell-based
Conditions: EEC cultures
Description: Primary human endometrial cells (ESC and EEC) were cultured for 5-9 days in DMEM-F12 medium containing 5% fetal bovine serum (FBS), 5 μg/ml insulin, 1% amphopthericin B, 100 μg/ml streptomycin and 100 U/ml penicillin until they were 80% confluent. Two types of endometrial epithelial cell lines, HES (originally derived from a benign proliferative endometrium) and Ishikawa (human endometrial epithelial adenocarcinoma, ECACC 9832301, Wiltshire, England) were cultured under the same conditions described above. The cells were washed twice with 100 mM phosphate saline buffer (PBS), pH 7.2 and cultured for additional 2 days in the same medium but without FBS (basal medium). Cells were washed as described before and cultured in basal medium containing leptin (0, 3, 10 or 62 nM) or IL-1β (0.6, 3 and 10 nM). […]
Endometrial cells were washed with ice-cold PBS and lysed by homogenization on ice with lysis buffer A [[…] Tris, pH 7.4, containing 137 nM NaCl, 2 mM EDTA, 10% glycerol, 50 mM β-glycerophosphate, 1% Nonidet P-40 and a mixture of proteases and phosphatase inhibitors composed of 100 μM antipain, 0.1 mg/ml trypsin inhibitor, protease inhibitor cocktail 1:50 (Sigma), 50 nM NaF, 2 mM phenyl-methylsulfonyl fluoride, and 2 mM sodium orthovanadate]. […] Protein concentrations were determined using the Bradford protein assay (BioRad Laboratories Inc., Hercules, Calif.). […]

Substance | effect on leptin-induced IL-1R tl levels | IL-1R tl levels after leptin
SRNVIQISNDLENLRDLLHVLAFSKS [LPA-2, 26 amino acid peptide, residues 70-95 of helix III of the human leptin molecule; leptin peptide antagonist] | inhibited the leptin-induced effects | 
leptin: human recombinant leptin (R&D Systems), OB-R ligand used as stimulus |  | increase the levels of IL-1R tl
